Source: PMC8151276, “An Integrated Approach toward NanoBRET Tracers for Analysis of GPCR Ligand Engagement” (Molecules, 2021)

Tests used:
Type in all cases: binding
MC3R = molecular target: T1, MC3R (Homo sapiens, UniProt P41968); assay: NanoBRET screen HiBiT-MC3R in HEK293; details: MC3R
T1 construct: purchased Promega (in-house HiBiT-GPCR construct library, NanoBRET)
How it was run: (§1)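 HEK293 cells transiently expressing N-terminal HiBiT-receptor fusions (diluted in carrier DNA, 18–20 h) treated 1.5 h at RT with fluorescent tracer at 1 μM or 0.1 μM, alone or with 20 μM unlabelled parental compound. Extracellular LgBiT plus furimazine added, 15 min; BRET 600/450 nm; value is fold BRETtracer/BRETcompetitor, ≥1.5 scored positive.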

AGTR1 = molecular target: T2, AGTR1 (Homo sapiens, UniProt P30556); assay: NanoBRET screen HiBiT-AGTR1 in HEK293; details: AGTR1
T2 construct: purchased Promega (in-house HiBiT-GPCR construct library, NanoBRET)
T2 sequence (P30556 1-359): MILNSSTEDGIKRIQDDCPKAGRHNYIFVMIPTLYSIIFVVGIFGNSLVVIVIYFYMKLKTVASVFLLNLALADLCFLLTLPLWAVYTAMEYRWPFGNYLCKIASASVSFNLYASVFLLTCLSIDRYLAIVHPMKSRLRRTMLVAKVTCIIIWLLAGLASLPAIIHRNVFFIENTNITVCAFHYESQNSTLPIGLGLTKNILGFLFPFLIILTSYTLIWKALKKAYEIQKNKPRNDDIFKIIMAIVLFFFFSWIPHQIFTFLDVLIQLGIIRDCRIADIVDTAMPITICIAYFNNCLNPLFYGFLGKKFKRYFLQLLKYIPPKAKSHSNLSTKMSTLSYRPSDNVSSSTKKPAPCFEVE
How it was run: as §1

P2RY6 = molecular target: T3, P2RY6 (Homo sapiens, UniProt Q15077); assay: NanoBRET screen HiBiT-P2RY6 in HEK293; details: P2RY6
T3 construct: purchased Promega (in-house HiBiT-GPCR construct library, NanoBRET)
T3 sequence (Q15077 whole entry): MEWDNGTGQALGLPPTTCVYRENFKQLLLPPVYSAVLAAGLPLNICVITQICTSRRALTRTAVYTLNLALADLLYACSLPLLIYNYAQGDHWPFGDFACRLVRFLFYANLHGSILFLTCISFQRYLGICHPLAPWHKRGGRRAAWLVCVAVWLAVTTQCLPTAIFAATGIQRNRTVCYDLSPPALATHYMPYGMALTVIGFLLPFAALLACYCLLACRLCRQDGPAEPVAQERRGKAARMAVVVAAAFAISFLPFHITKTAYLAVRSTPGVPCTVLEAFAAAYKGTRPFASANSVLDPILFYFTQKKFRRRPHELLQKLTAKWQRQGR
How it was run: as §1

OXER1 = molecular target: T4, OXER1 (Homo sapiens, UniProt Q8TDS5); assay: NanoBRET screen HiBiT-OXER1 in HEK293; details: OXER1
T4 construct: purchased Promega (in-house HiBiT-GPCR construct library, NanoBRET)
T4 sequence (Q8TDS5 whole entry): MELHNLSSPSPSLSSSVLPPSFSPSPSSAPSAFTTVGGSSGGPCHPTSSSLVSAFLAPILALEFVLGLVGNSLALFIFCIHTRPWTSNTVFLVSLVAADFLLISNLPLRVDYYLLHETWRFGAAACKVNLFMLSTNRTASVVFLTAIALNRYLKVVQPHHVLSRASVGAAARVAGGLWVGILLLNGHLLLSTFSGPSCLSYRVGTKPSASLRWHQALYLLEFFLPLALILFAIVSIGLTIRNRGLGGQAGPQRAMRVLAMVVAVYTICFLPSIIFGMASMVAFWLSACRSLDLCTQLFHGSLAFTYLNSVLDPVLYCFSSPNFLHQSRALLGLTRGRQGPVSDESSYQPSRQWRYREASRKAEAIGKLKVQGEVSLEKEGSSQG
How it was run: as §1

FPR3 = molecular target: T5, FPR3 (Homo sapiens, UniProt P25089); assay: NanoBRET screen HiBiT-FPR3 in HEK293; details: FPR3
T5 construct: purchased Promega (in-house HiBiT-GPCR construct library, NanoBRET)
T5 sequence (P25089 1-353): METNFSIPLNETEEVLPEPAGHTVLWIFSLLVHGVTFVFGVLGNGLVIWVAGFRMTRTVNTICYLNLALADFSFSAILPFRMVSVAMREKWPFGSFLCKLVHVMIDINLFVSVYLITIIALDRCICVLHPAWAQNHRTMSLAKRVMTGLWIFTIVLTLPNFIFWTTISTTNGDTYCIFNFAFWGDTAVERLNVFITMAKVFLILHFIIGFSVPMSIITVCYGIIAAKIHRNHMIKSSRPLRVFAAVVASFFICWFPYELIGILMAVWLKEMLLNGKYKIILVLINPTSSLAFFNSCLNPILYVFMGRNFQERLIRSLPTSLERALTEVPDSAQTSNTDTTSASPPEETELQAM
How it was run: as §1

NPY2R = molecular target: T6, NPY2R (Homo sapiens, UniProt P49146); assay: NanoBRET screen HiBiT-NPY2R in HEK293; details: NPY2R
T6 construct: purchased Promega (in-house HiBiT-GPCR construct library, NanoBRET)
T6 sequence (P49146 1-381): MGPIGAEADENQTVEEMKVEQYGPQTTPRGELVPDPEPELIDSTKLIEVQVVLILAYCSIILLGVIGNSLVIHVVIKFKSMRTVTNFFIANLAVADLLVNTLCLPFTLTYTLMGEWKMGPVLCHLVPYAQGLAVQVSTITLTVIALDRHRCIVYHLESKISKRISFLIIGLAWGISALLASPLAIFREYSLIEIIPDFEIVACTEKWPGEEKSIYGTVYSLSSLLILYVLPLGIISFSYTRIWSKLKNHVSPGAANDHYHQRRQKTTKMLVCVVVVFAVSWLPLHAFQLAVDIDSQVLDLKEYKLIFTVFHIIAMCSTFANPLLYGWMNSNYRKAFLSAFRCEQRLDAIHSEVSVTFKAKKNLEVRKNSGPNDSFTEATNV
How it was run: as §1

T1 sequence (P41968 whole entry): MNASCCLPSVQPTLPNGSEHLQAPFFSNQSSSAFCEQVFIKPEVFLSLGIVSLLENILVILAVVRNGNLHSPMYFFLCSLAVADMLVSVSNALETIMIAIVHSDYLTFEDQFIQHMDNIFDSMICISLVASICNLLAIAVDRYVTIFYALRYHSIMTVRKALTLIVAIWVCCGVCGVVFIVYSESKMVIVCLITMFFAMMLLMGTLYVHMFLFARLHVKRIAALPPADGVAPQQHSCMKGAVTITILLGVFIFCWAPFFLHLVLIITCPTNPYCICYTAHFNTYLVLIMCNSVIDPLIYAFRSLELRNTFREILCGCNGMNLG

In the case of `CN1CCN(C2=Nc3cc(Cl)ccc3Nc3ccc(CNC(=O)CCOCCOCCOCCOCCNC(=O)CCc4ccc5n4[B-](F)(F)[N+]4=C(c6ccc[nH]6)C=CC4=C5)cc32)CC1` [Clozapine-b-2-NB590], the “NanoBRET Fold Response” value (MC3R; 0.1μM tracer) is reported as 1.05, the “NanoBRET Fold Response” value (MC3R; 1μM tracer) is reported as 0.94 and the “NanoBRET Fold Response” value (AGTR1; 0.1μM tracer) is reported as 1.01. The “NanoBRET Fold Response” value (AGTR1; 1μM tracer) was 1.06, the “NanoBRET Fold Response” value (P2RY6; 0.1μM tracer) was 1.04 and the “NanoBRET Fold Response” value (P2RY6; 1μM tracer) was 0.98. The “NanoBRET Fold Response” value (OXER1; 0.1μM tracer) was 0.97, the “NanoBRET Fold Response” value (OXER1; 1μM tracer) was 0.95 and the “NanoBRET Fold Response” value (FPR3; 0.1μM tracer) was 1.06. The “NanoBRET Fold Response” value (FPR3; 1μM tracer) was 1.23, the “NanoBRET Fold Response” value (NPY2R; 0.1μM tracer) was 1.00 and the “NanoBRET Fold Response” value (NPY2R; 1μM tracer) was 1.02.

`Cc1nc2n(c(=O)c1CCN1CCC(c3noc4cc(F)ccc34)CC1)CCCC2OC(=O)NCCOCCOCCOCCOCCNC(=O)CCc1ccc2n1[B-](F)(F)[N+]1=C(c3ccc[nH]3)C=CC1=C2` (stereo not drawn) [Risperidone-2-NB590] was tested, and the “NanoBRET Fold Response” value (MC3R; tracer 0.1μM) was 0.99, the “NanoBRET Fold Response” value (MC3R; tracer 1μM) was 0.95 and the “NanoBRET Fold Response” value (AGTR1; tracer 0.1μM) was 0.99. For the same compound, the “NanoBRET Fold Response” value (AGTR1; tracer 1μM) was 0.98, the “NanoBRET Fold Response” value (P2RY6; tracer 0.1μM) was 1.00 and the “NanoBRET Fold Response” value (P2RY6; tracer 1μM) was 1.03. For the same compound, the “NanoBRET Fold Response” value (OXER1; tracer 0.1μM) was 1.03, the “NanoBRET Fold Response” value (OXER1; tracer 1μM) was 1.18 and the “NanoBRET Fold Response” value (FPR3; tracer 0.1μM) was 0.98. The “NanoBRET Fold Response” value (FPR3; tracer 1μM) was 0.94, the “NanoBRET Fold Response” value (NPY2R; tracer 0.1μM) was 1.07 and the “NanoBRET Fold Response” value (NPY2R; tracer 1μM) was 0.98.
